# Measured values: US10487054B2, “Therapeutic compounds” (REGENTS OF THE UNIVERSITY OF MINNESOTA, priority 2017, dated 2019)
# Tested on: SKH-1 hairless mice
# Test: SUV-induced mouse skin tumorigenesis, late-stage prevention model
# Format: in vivo
# Procedure: Tumor volume was calculated according to the following formula: tumor volume (mm^3)=length×width×height×0.52. […] For 5B and 5C, data are represented as mean values±S.D. and differences were determined by one-way ANOVA. The asterisk (*) indicates a significant decrease compared to the group exposed to SUV only or the group treated with vehicle followed by SUV (***, p<0.001). […] Dorsal trunk skin samples were harvested and stained with H&E (left panels) or with an antibody to detect PCNA (right panels). […] Expression of PCNA was quantified using Image-Pro Plus software and stained cells were counted from 5 separate areas on each slide (lower panel). An average of 3 samples was calculated per group. Data are expressed as mean percent of control±S.D. and the asterisks indicate a significant difference in PCNA expression (***, p<0.001). […] The expression levels of phosphorylated and total proteins were analyzed by Western blot.
# Mice were weighed once a week until week 28. […] SKH-1 hairless mice were treated as described in Materials and Methods. The mice in the control groups (n=9) received no vehicle/no SUV (n=3), vehicle/no SUV (n=3), or 1 mg compound 1/no SUV (n=3), respectively. The mice in the rest of the groups received SUV irradiation for 15 weeks 3 times a week. The mice in the vehicle/SUV-treated group (n=12) were treated with oil-in-water emulsion cream 3 times a week until the end of the experiment (28 weeks). The mice in the 0.1 mg/SUV or 1 mg/SUV groups (n=12 each) received treatment with compound 1 (0.1 or 1 mg, respectively) 3 times a week until the end of the experiment (28 weeks). The respective doses of oil-in-water emulsion cream or compound 1 were applied topically to the dorsal area. Tumor incidence and multiplicity were recorded weekly until the end of the experiment at week 28.
# Female SKH-1 hairless mice were purchased from Charles River and were acclimated for 2 weeks before the study and had free access to food and water. All animals were maintained according to the guidelines approved by the University of Minnesota Institutional Animal Care and Use Committee (IACUC). The animals were housed in climate-controlled quarters with a 12-h light/dark cycle. The skin carcinogenesis experiments were conducted using 6-8 wk old mice with a mean body weight of 25 g. Skin carcinogenesis was induced by a solar simulated ultraviolet irradiation system. The SUV irradiation source (Q-Lab Corporation, Westlake, Ohio) emitted at wavelengths of 295 to 365 nm and the peak emission was 340 nm.
# For the late-stage prevention model, the control and experimental groups were identical to those for the early prevention model. However, the experimental groups of mice were exposed to SUV irradiation 3 times a week for 15 weeks without application of vehicle or compound 1 in vehicle. At the end of 15 weeks, SUV exposure was stopped and application of vehicle with or without compound 1 was begun and continued for 13 weeks until week 28 at which time the study was discontinued and mice euthanized and tissues harvested.
# At week 1, mice were irradiated with SUV at a dose of 36 kJ/m^2 UVA and 1.8 kJ/m^2 UVB. At week 6, the dose of SUV reached 60 kJ/m^2 UVA and 2.9 kJ/m^2 UVB and this dose was maintained from week 6 to week 15. The respective doses of vehicle or compound 1 were applied topically to the dorsal area. Mice were weighed and tumors were measured once a week until week 28 or when tumor load reached 1 cm^3 total volume. At that time mice were euthanized and one-half of each sample was immediately fixed in 10% formalin and processed for hematoxylin and eosin (H&E) staining and immunohistochemistry. The other one-half of the sample was frozen and used for Western blot analysis.
# Skin tissues were embedded in paraffin and subjected to immunohistochemistry. Tissues were de-paraffinized and hydrated and then permeabilized with 0.5% Triton X-100/1×PBS for 10 min. […]
# [1] = late-stage model, topical 0.1 or 1 mg, vs vehicle-treated group, 28 weeks
compound,measurement,setting,value
"O=C1Nc2ccc(C34CC5CC(CC(C5)C3)C4)cc2C1=NO [compound 1, 5-(adamantan-1-yl)-3-(hydroxyimino)indolin-2-one]",epidermal thickness,"late-stage model, H&E",dramatically decreased
same,formation of SCCs,"late-stage model, H&E",inhibited
same,"SUV-induced phosphorylation of ERK1/2, p38, and JNKs in mouse skin","late-stage model, Western blot",dramatically suppressed
same,expression of PCNA,"late-stage model, immunohistochemistry of skin",decreased
same,tumor multiplicity,[1],significantly reduced
same,tumor volume,[1],significantly reduced
same,malignancy rate,"late-stage model, vs vehicle-treated mice",significantly decreased
same,SUV-induced tumor incidence,late-stage prevention group,substantial suppression
same,body weight,"topical application on dorsal skin, late-stage model, to week 28",no effect on body weight
